Test results reported in US10975063B2, “Compound, and production method thereof, and methods of treatment using the compound” (ABIVAX, priority 2009, dated 2021).

The compounds below were run on LMNA aberrant splicing (MutLMNA-luc cell line) (assay: Luciferase assay for repression of LMNA aberrant splicing in stable 293 MutLMNA-luc cell line (293FLP LMNA LUC cells #8)). Details: 48 hours, compared to control untreated MutLMNA-luc cell line, read-out: Increase of luciferase activity.
Assay type: cell-based
Description: Advantage has been taken of the luciferase system. The luciferase assay is an extremely sensitive and rapid assay. Linear results are seen over at least eight orders of magnitude of enzyme concentration. Moreover, the luciferase assay is well suited for high-throughput applications. To conduct a Mid-throughput screening (MTS) for compounds repressing LMNA aberrant splicing, we have constructed a plasmid in which exon 11, intron 11 and part of exon 12 of LMNA gene were fused with luciferase cDNA (FIG. 2). Both wild type (WtLMNA-luc)(SEQ ID NO: 1) and mutant (MutLMNA-luc)(SEQ ID NO: 2) substrate harbouring exon 11 mutation have been constructed. In these constructs we have generated a single initiation codon in exon 11 such as correct splicing will lead to luciferase expression, while aberrant splicing will skip the initiation codon and thereby prevent luciferase expression. After transfection in HeLa cells, Luciferase assays (FIG. 2B) and RT-PCR (FIG. 2C) indicate that WtLMNA-luc produces predominantly wild type splicing and large amount of luciferase activity, whereas MutLMNA-luc recapitulate the aberrant splicing profile with reduced luciferase expression (FIGS. 2 B and C, compare Wt and Mut). In order to use this system in MTS, we have generated a stable 293 cell lines containing a single integrated copy of luciferase reporter containing LMNA mutation (MutLMNA-luc cell line) using the flp system from INVITROGEN. This system allows us to perform a MTS for compounds able to enhance luciferase activity.
LMNA sequences (1278 bp of exon 11, intron 11 and 46 bp of […]) were PCR-amplified from either control or patient's cells genomic DNA with specific primer PCR fragments were purified with Concert Rapid PCR purification system (Invitrogen) and subcloned at the BamHI and EcoRI restriction sites of the pSppβm3 S1 plasmid containing the βGlobin cassette (Labourier et al., 1999—Recognition of exonic splicing enhancer sequences by the Drosophila splicing repressor RSF1. Nucleic Acids Res. 27, 2377-2386) to give the βGlo3S1LMNAwt and βGlo3S1LMNAmut constructs. The chimeric (3Glo-LMNA sequences were then inserted into the pcDNA3.1D/V5-His-TOPO vector (Invitrogen) to be used in transfection and in vitro splicing experiments. A single initiation codon ATG was kept in exon 11 of LMNA and LMNA sequences described above were fused at their 3′ end to Fyrefly luciferase cDNA (LMNAlucWT) in order that removal of intron 11 generates a transcript that encode a fusion protein harbouring luciferase activity, whereas usage of the cryptic splice site of mutated exon 11 (LMNAlucMut) will remove the initiation codon preventing luciferase expression. Both sequences were cloned in pcDNA3 Flp-In vector (Invitrogen).
A stable 293 cell line containing a single copy of LMNAlucMut minigene was obtained using the Flp-In system from (Invitrogen) according to manufacture procedure. Several clones were obtained and only one clone was used to screen the whole chemical library (293FLP LMNA LUC cells #8).
In a 96 Well Plate sterile, V-shape one put […] of drug compounds at 50 mM and then add 49.5 μl of 10% DMSO.
One pipets […] of drug at 500 μM and adds 200 μL of DMEM+Hygromycin B. At this stage the concentration of drug compound is 10 μM. One shares out 100 μl in a 96 Well Microplate sterile, flat bottom (further called luciferase plate) and 50 μl in other one (further called toxicity plate).
One washes 293FLP LMNA LUC cells once with D-PBS then adds 1 ml trypsin EDTA. Incubation at 37° C. for 2-3 minutes is proceeded. Then one adds 9 ml DMEM (with 10% FCS, P/S).
Cell concentration is brought at 10^5 cells per ml with DMEM+Hygromycin B to have 10^4 cells per 100 μl.
100 μl of suspension cells is added (at 10^4 cells per 100 μl) so final concentration of compounds is […].
Medium of the wells is gently removed then washed once by adding slowly 150 μl of D-PBS 1×. D-PBS is removed. 40 μl of PLB 1× is added and incubated at RT for 30 minutes. […]

SMILES	fold induction at 5 µM
O=C(O)c1ccnc(Nc2ccc3ccccc3n2)c1 [Compound 2, 2-(Quinolin-2-ylamino)-isonicotinic acid]	3.77
Cc1ccnc(Nc2ccc3ccccc3n2)c1 [Compound 3, (4-Methyl-pyridin-2-yl)-quinolin-2-yl-amine]	4.54
c1ccc(Nc2ccc3ccccc3n2)nc1 [Compound 4, Pyridin-2-yl-quinolin-2-yl-amine]	4.43
O=C(O)c1ccnc(Nc2ccc3cccc(Cl)c3n2)c1 [Compound 5, 2-(8-Chloro-quinolin-2-ylamino)-isonicotinic acid]	2.02
N#Cc1ccc(Nc2ccc3ccccc3n2)nc1 [Compound 7, 6-(Quinolin-2-ylamino)-nicotinonitrile]	3.33
FC(F)(F)Oc1ccc(Nc2ccc3ccccc3n2)cc1 [Compound 8, Quinolin-2-yl-(4-trifluoromethoxy-phenyl)-amine]	3.35
c1ccc(Nc2cnc3ccccc3c2)nc1 [Compound 9, Pyridin-2-yl-quinolin-3-yl-amine]	2.47
COc1cccnc1Nc1cnc2ccccc2c1 [Compound 10, (3-Methoxy-pyridin-2-yl)-quinolin-3-yl-amine]	2.01
Cc1ccc(Nc2cnc3ccccc3c2)nc1 [Compound 13, (5-Methyl-pyridin-2-yl)-quinolin-3-yl-amine]	3.46
FC(F)(F)c1ccc(Nc2ccc3ncccc3c2)nc1 [Compound 15, Quinolin-6-yl-(5-trifluoromethyl-pyridin-2-yl)-amine]	2.17
Cc1cccc(Nc2ccc3ncccc3c2)n1 [Compound 16, (6-Methyl-pyridin-2-yl)-quinolin-6-yl-amine]	4.56
Cc1cccc(Nc2ccc3ccccc3n2)n1 [Compound 17, N-(6-methylpyridin-2-yl)quinolin-2-amine]	3.66
Cc1cccc(Nc2ccc3cccc(Cl)c3n2)n1 [Compound 18, 8-chloro-N-(6-methylpyridin-2-yl)quinolin-2-amine]	2.85
Cc1ccnc(Nc2ccc3cc(Cl)ccc3n2)c1 [Compound 25, 6-chloro-N-(4-methylpyridin-2-yl)quinolin-2-amine]	3.49
Cc1cccc(Nc2ccc3cc(Cl)ccc3n2)n1 [Compound 26, 6-chloro-N-(6-methylpyridin-2-yl)quinolin-2-amine]	6.2
O=[N+]([O-])c1cccnc1Nc1ccc2ccccc2n1 [Compound 28, N-(3-nitropyridin-2-yl)quinolin-2-amine]	2.99
Cc1cccnc1Nc1ccc2ccccc2n1 [Compound 31, N-(3-methylpyridin-2-yl)quinolin-2-amine]	5.07
Cc1ccc(Nc2ccc3ccccc3n2)nc1 [Compound 32, N-(5-methylpyridin-2-yl)quinolin-2-amine]	2.96
N#Cc1ccnc(Nc2ccc3ccccc3n2)c1 [Compound 33, 2-(quinolin-2-ylamino)isonicotinonitrile]	2.14
FC(F)(F)c1ccc(Nc2ccc3ccccc3n2)nc1 [Compound 34, N-(5-(trifluoromethyl)pyridin-2-yl)quinolin-2-amine]	4.18
Cc1cccnc1Nc1ccc2cccc(Cl)c2n1 [Compound 35, 8-chloro-N-(3-methylpyridin-2-yl)quinolin-2-amine]	2.74
Cc1ccc(Nc2ccc3cccc(Cl)c3n2)nc1 [Compound 36, 8-chloro-N-(5-methylpyridin-2-yl)quinolin-2-amine]	3.06
COc1cccnc1Nc1ccc2ccccc2n1 [Compound 38, N-(3-methoxypyridin-2-yl)quinolin-2-amine]	5.81

SMILES	fold induction at 5 µM
O=[N+]([O-])c1ccc(Nc2ccc3ccccc3n2)nc1 [Compound 39, N-(5-nitropyridin-2-yl)quinolin-2-amine]	4.29
Fc1ccc(Nc2ccc3ccccc3n2)nc1 [Compound 41, N-(5-fluoropyridin-2-yl)quinolin-2-amine]	3.32
FC(F)(F)c1cccc(Nc2ccc3ccccc3n2)n1 [Compound 42, N-(6-(trifluoromethyl)pyridin-2-yl)quinolin-2-amine]	3.87
COC(=O)c1ccc(Nc2ccc3ccccc3n2)nc1 [Compound 59, methyl 6-(quinolin-2-ylamino)nicotinate]	2.49
COC(=O)c1ccc(Nc2nc3ccccc3cc2C)nc1 [Compound 61, methyl 6-[(3-methylquinolin-2-yl)amino]pyridine-3-carboxylate]	2.04
FC(F)(F)Oc1cccc(Nc2ccc3ccccc3n2)c1 [Compound 83, N-[3-(trifluoromethoxy)phenyl]quinolin-2-amine]	2.74
c1ccc(Oc2ccc(Nc3ccc4ccccc4n3)cc2)cc1 [Compound 102, N-(4-phenoxyphenyl)quinolin-2-amine]	2.06
Cc1cccc(Nc2cnc3ccccc3c2)n1 [Compound 105, N-(6-methylpyridin-2-yl)quinolin-3-amine]	3.25
Cc1ccc(Nc2ccc3ncccc3c2)nc1 [Compound 107, N-(5-methylpyridin-2-yl)quinolin-6-amine]	2.2
COc1cccnc1Nc1ccc2ncccc2c1 [Compound 108, N-(3-methoxypyridin-2-yl)quinolin-6-amine]	4.57
c1ccc2nc(Nc3cnccn3)ccc2c1 [Compound 113, N-(pyrazin-2-yl)quinolin-2-amine]	2.28
c1ccc2nc(Nc3ccncc3)ccc2c1 [Compound 120, N-(pyridin-4-yl)quinolin-2-amine]	2.38
COc1ccc(Nc2cnc3ccccc3c2)cc1 [Compound 123, N-(4-methoxyphenyl)quinolin-3-amine]	2.94
Cc1cc(OC(F)(F)F)ccc1Nc1cnc2ccccc2n1 [Compound 125, N-[2-methyl-4-(trifluoromethoxy)phenyl]quinoxalin-2-amine]	2.59
c1cnc(Nc2ccc3ccccc3n2)nc1 [Compound 128, N-(pyrimidin-2-yl)quinolin-2-amine]	3.08
c1ccc(Nc2cnc3ccccc3n2)nc1 [Compound 135, N-(pyridin-2-yl)quinoxalin-2-amine]	4.58
N#Cc1ccc(Nc2cnc3ccccc3n2)nc1 [Compound 137, 6-(quinoxalin-2-ylamino)pyridine-3-carbonitrile]	4.64
Cc1cccc(Nc2cnc3ccccc3n2)n1 [Compound 138, N-(6-methylpyridin-2-yl)quinoxalin-2-amine]	8.22
c1cnc(Nc2cnc3ccccc3n2)nc1 [Compound 142, N-(pyrimidin-2-yl)quinoxalin-2-amine]	4.47
COc1ccnc2cc(Nc3ccccn3)ccc12 [Compound 145, 4-methoxy-N-(pyridin-2-yl)quinolin-7-amine]	3.87
COc1ccnc2cc(Nc3cc(C)ccn3)ccc12 [Compound 146, 4-methoxy-N-(4-methylpyridin-2-yl)quinolin-7-amine]	4.18
Cc1ccnc(Nc2ccc3c(N(C)C)ccnc3c2)c1 [Compound 147, 4-N,4-N-dimethyl-7-N-(4-methylpyridin-2-yl)quinoline-4,7-diamine]	2.94
